{"source": "patent EP1856102B1", "about": "“MEDICAMENTS FOR ALZHEIMER” (Tseti, Ioulia, priority 2005, dated 2006)", "key": {"[1]": {"tested_on": "carrageenan-induced edema of the rat hind paw", "assay": "Carrageenan-induced edema of the rat hind paw", "format": "in vivo, female Fischer-344 rats", "conditions": "0.3mmol/kg i.p. immediately after carrageenan; paws weighed 3.5 h later; edema suppression in comparison to controls", "procedure": "Edema was induced via i.d. injection of carrageenan (0.1 ml of a 2% w/v aqueous solution) into the right hind paw of female Fischer-344 rats (200-220g) (the left paw serving as control). The compounds under study were dissolved or suspended in water containing a few drops of Tween 80 and were administered i.p. (0.3mmol/kg) immediately after the carrageenan injection. The mice were euthanazed 3.5 h later, both hind paws were severed above the ankle joint and weighted separately. For each animal the swelling caused by the phlogistic was given as percentage of weight increase of right hind paw in comparison to the uninjected left hind paw, and from that, the percentage of edema suppression in comparison to controls was calculated. The parent anti-inflammatory acids (at the same molar concentrations) were used as reference compounds, in addition to the absolute control. […] Table 1: Effect of the test compounds on carrageenan-induced edema of the rat hind paw"}, "[2]": {"assay": "Interaction with the stable free radical DPPH", "conditions": "DPPH 0.2 mmol/L in ethanol, room temperature, 45 min", "procedure": "The test compounds were dissolved in absolute ethanol (analytical grade, iron content was less than 10^-3 (w/v), added to an equal volume of an ethanolic solution of DPPH (final concentration 0.2 mmol/L) at various concentrations (0.1 and 0.2 mmol/L) and kept at room temperature. Absorbance (517 nm) was recorded at 45 min. Each experiment was performed at least in triplicate. Table 5: % Interaction of the test compounds with the stable free radical DPPH"}, "[3]": {"tested_on": "tyloxapol-induced hyperlipidemia", "assay": "Tyloxapol-induced hyperlipidemia in rats", "format": "in vivo", "conditions": "56µmol/kg i.p. once, 24 h later, tyloxapol 200 mg/kg i.p.; for % decrease LDL: plasma LDL-cholesterol; for % decrease TC: plasma total cholesterol; for % decrease TG: plasma triglyceride", "procedure": "The hypocholesterolemic and hypolipidemic activity of the test compounds was assessed in vivo by the inhibition of tyloxapol-induced hyperlipidemia (200 mg/kg i.p.) in rats. The novel NSAID derivatives were administered (56µmol/kg, i.p., once) to hypercholesterolemic rats and 24 h later the plasma total cholesterol (TC), LDL and triglyceride (TG) concentrations were determined in blood taken from the aorta. […] Table 6: Effect of the test compounds on plasma total cholesterol, triglyceride and LDL-cholesterol levels of hyperlipidemic rats"}, "[4]": {"tested_on": "lipid peroxidation of hepatic microsomal fraction", "assay": "In vitro lipid peroxidation (TBA reactive material)", "format": "biochemical, Fischer-344 rats", "conditions": "at 45 min, 37°C; heat inactivated rat hepatic microsomal fraction, FeSO4/ascorbic acid", "procedure": "Hepatic microsomal fraction from untreated Fischer-344 rats was prepared. The incubation mixture contained heat inactivated (90°C for 90 sec) hepatic microsomal fraction, corresponding to 2.5 mg protein/ml (fmal concentration) or 4 mmol/L fatty acid residues, ascorbic acid (0.2 mmol/L) in Tris-HCl/KCl buffer (50 mmol/L / 150mmol/L, pH 7.4) and various concentrations (1-0.05 mmol/L) of the test compounds dissolved in dimethylsulfoxide (DMSO). The reaction was started by the addition of a freshly prepared FeSO4 solution (10 µM/L) and the mixture was incubated at 37°C for 45 min. Aliquots (0.3mL) from the incubation mixture were taken at various time intervals. Lipid peroxidation was assessed spectrophotometrically (535 against 600 nm) by the determination of the TBA reactive material. Under the above experimental conditions, all compounds, as well as DMSO, were tested and found not to interfere with the assay. Each experiment was performed at least in triplicate."}, "female Fischer-344 rats": {"tested_on": "female Fischer-344 rats", "conditions": "s.c. once daily for 4 days, dose 84 µM/kg (Indomethacin, 1, 2, 3) or 1350 µM/kg (Naproxen, 4, 5); for Mortality (%): (dead/total) x 100, recorded 24 h after last treatment; for Perforating ulcers (%): % of animals which developed perforating ulcers", "procedure": "Equimolar doses of the parent NSAIDs and the respective derivatives were administered s.c. once daily for 4 days to female Fischer-344 rats (160-180g). The used dose was ca LD50 of the parent NSAID. The incidence of perforating gastrointestinal ulcers, body weight change, melena and mortality were recorded 24 h after the last treatment. […] Table 3: Gastrointestinal toxicity of indomethacin, naproxen and some novel derivatives in rats"}, "[5]": {"tested_on": "FCA-induced experimental arthritis in rats", "assay": "Adjuvant-induced disease (FCA-induced experimental arthritis)", "format": "in vivo, female Fischer-344 rats", "conditions": "0.3-0.6 mmol/kg i.p. once daily for 14 days; in comparison to non treated AID rats", "procedure": "Adjuvant-induced disease (AID) was induced via i.d. injection of Freund's complete adjuvant (0.1 ml of FCA) in the foot pad of the right hind paw of female Fischer-344 rats. The compounds under study were dissolved or suspended in water containing a few drops of Tween 80 and were administered i.p. (0.3-0.6 mmol/kg) once daily for 14 days. In order to observe the progress of local inflammatory reaction, the change in swelling of paw with adjuvant treatment was evaluated by allocation of points (inflammatory score) on an arbitrary scale, while for the quantification of arthritis the arthritic score was recorded.\nTable 2: Effect of the test compounds on FCA-induced experimental arthritis in rats"}}, "note": "Marks after values point to notes of the source that are not given here.", "data": [{"smiles": "COc1ccc2cc(C(C)C(=O)N3CCCC3C(=O)Oc3ccc(C)cc3OC)ccc2c1", "note": "(stereo not drawn) [Compound 6, 1-[2-(6-methoxy-naphthalen-2-yl)-propionyl]-pyrrolidine-2-carboxylic acid 2-methoxy-4-methyl phenyl ester]", "values": [{"measurement": "% Edema inhibition", "setting": "[1]", "result": 20, "unit": "%"}]}, {"smiles": "CCOC(=O)C(CS)NC(=O)C1CCCCN1C(=O)C(C)c1ccc2cc(OC)ccc2c1", "note": "(stereo not drawn) [Compound 9]", "values": [{"measurement": "% Interaction with the stable free radical DPPH", "setting": "[2]; compound 0.2mM", "result": 76, "unit": "%"}, {"measurement": "% Interaction with the stable free radical DPPH", "setting": "[2]; compound 0.1mm", "result": 46, "unit": "%"}, {"measurement": "% decrease LDL", "setting": "[3]", "result": "52* %"}, {"measurement": "% decrease TC", "setting": "[3]", "result": 40, "unit": "%"}, {"measurement": "% decrease TG", "setting": "[3]", "result": 21.3, "unit": "%"}, {"measurement": "IC50", "setting": "[4]", "result": 122, "unit": "µM"}]}, {"smiles": "COc1ccc2c(c1)c(CC(=O)O)c(C)n2C(=O)c1ccc(Cl)cc1", "note": "[Indomethacin, reference compound]", "values": [{"measurement": "Mortality (%)", "setting": "female Fischer-344 rats", "result": 50, "unit": "%"}, {"measurement": "% Edema inhibition", "setting": "[1]", "result": 47.8, "unit": "%"}]}, {"smiles": "COc1ccc2c(c1)c(CC(=O)N1CCCC1C(=O)Oc1ccc(C)cc1OC)c(C)n2C(=O)c1ccc(Cl)cc1", "note": "(stereo not drawn) [Compound 3, 1-{2-[1-(4-Chloro-benzoyl)-5-methoxy-2-methyl-1-H-indol-3-yl]-acetyl}-pyrrolidine-2-carboxylic acid-2-methoxy-4-methyl-phenyl ester]", "values": [{"measurement": "Perforating ulcers (%)", "setting": "female Fischer-344 rats", "result": 0, "unit": "%"}, {"measurement": "Mortality (%)", "setting": "female Fischer-344 rats", "result": 0, "unit": "%"}, {"measurement": "Body weight change", "setting": "female Fischer-344 rats", "result": "+11.1 g/100 body weight"}]}, {"smiles": "COc1ccc2c(c1)c(CC(=O)N1CCCC1C(=O)NCCS)c(C)n2C(=O)c1ccc(Cl)cc1", "note": "(stereo not drawn) [Compound 1, 1-{2-[1-(4-Chloro-benzoyl)-5-methoxy-2-methyl-1-H-indol-3-yl]-acetyl}-pyrrolydine-2-carboxylic acid (2-mercapto-ethyl) amide]", "values": [{"measurement": "% Inhibition of experimental arthritis", "setting": "[5]", "result": 50, "unit": "%"}, {"measurement": "Perforating ulcers (%)", "setting": "female Fischer-344 rats", "result": 0, "unit": "%"}, {"measurement": "Mortality (%)", "setting": "female Fischer-344 rats", "result": 0, "unit": "%"}, {"measurement": "Body weight change", "setting": "female Fischer-344 rats", "result": "+1.3 g/100 body weight"}, {"measurement": "% Edema inhibition", "setting": "[1]", "result": 23, "unit": "%"}]}, {"smiles": "COc1ccc2cc([C@H](C)C(=O)O)ccc2c1", "note": "[Naproxen, reference compound]", "values": [{"measurement": "Mortality (%)", "setting": "female Fischer-344 rats", "result": 50, "unit": "%"}, {"measurement": "% Edema inhibition", "setting": "[1]", "result": 45, "unit": "%"}]}, {"smiles": "CCOC(=O)C(CS)NC(=O)C1CCCN1C(=O)Cc1c(C)n(C(=O)c2ccc(Cl)cc2)c2ccc(OC)cc12", "note": "(stereo not drawn) [Compound 2, 2-[(1-{2-[1-(4-Chloro-benzoyl)-5-methoxy-2-methyl-1-H-indol-3-yl]-acetyl}-pyrrolidine-2-carbonyl)-amino]-3-mercapto-propionic acid ethyl ester]", "values": [{"measurement": "% Inhibition of experimental arthritis", "setting": "[5]", "result": 75, "unit": "%"}, {"measurement": "% Interaction with the stable free radical DPPH", "setting": "[2]; compound 0.2mM", "result": 70, "unit": "%"}, {"measurement": "% Interaction with the stable free radical DPPH", "setting": "[2]; compound 0.1mm", "result": 44, "unit": "%"}, {"measurement": "Perforating ulcers (%)", "setting": "female Fischer-344 rats", "result": 0, "unit": "%"}, {"measurement": "Mortality (%)", "setting": "female Fischer-344 rats", "result": 0, "unit": "%"}, {"measurement": "Body weight change", "setting": "female Fischer-344 rats", "result": "+3.9 g/100 body weight"}, {"measurement": "IC50", "setting": "[4]", "result": 390, "unit": "µM"}, {"measurement": "% Edema inhibition", "setting": "[1]", "result": 20, "unit": "%"}]}, {"smiles": "CCOC(=O)C(CS)NC(=O)C1CC(O)CN1C(=O)C(C)c1ccc2cc(OC)ccc2c1", "note": "(stereo not drawn) [Compound 8]", "values": [{"measurement": "% Interaction with the stable free radical DPPH", "setting": "[2]; compound 0.2mM", "result": 75, "unit": "%"}, {"measurement": "% Interaction with the stable free radical DPPH", "setting": "[2]; compound 0.1mm", "result": 55, "unit": "%"}, {"measurement": "% decrease LDL", "setting": "[3]", "result": "56.5* %"}, {"measurement": "% decrease TC", "setting": "[3]", "result": 35.5, "unit": "%"}, {"measurement": "% decrease TG", "setting": "[3]", "result": 25, "unit": "%"}, {"measurement": "IC50", "setting": "[4]", "result": 500, "unit": "µM"}]}, {"smiles": "COc1ccc2cc(C(C)C(=O)N3CCCC3C(=O)NCCS)ccc2c1", "note": "(stereo not drawn) [Compound 4, 1-[2-(6-methoxy-naphthalen-2-yl)-propionyl]-pyrrolidine-2-carboxylic acid-(2-mercapto-ethyl) amide]", "values": [{"measurement": "% Inhibition of experimental arthritis", "setting": "[5]", "result": 30, "unit": "%"}, {"measurement": "% Interaction with the stable free radical DPPH", "setting": "[2]; compound 0.2mM", "result": 78, "unit": "%"}, {"measurement": "% Interaction with the stable free radical DPPH", "setting": "[2]; compound 0.1mm", "result": 57, "unit": "%"}, {"measurement": "% Edema inhibition", "setting": "[1]", "result": 30, "unit": "%"}]}, {"smiles": "COc1ccc2cc(C(C)C(=O)N3CC(O)CC3C(=O)NCCS)ccc2c1", "note": "(stereo not drawn) [Compound 7, 4-Hydroxy-1-[2-(6-methoxy-naphthalen-2-yl)-propionyl]-pyrrolidine-2-carboxylic acid-(2-mercapto-ethyl) amide]", "values": [{"measurement": "% Interaction with the stable free radical DPPH", "setting": "[2]; compound 0.2mM", "result": 56, "unit": "%"}, {"measurement": "% Interaction with the stable free radical DPPH", "setting": "[2]; compound 0.1mm", "result": 34, "unit": "%"}, {"measurement": "% decrease LDL", "setting": "[3]", "result": "53.5 * %"}, {"measurement": "% decrease TC", "setting": "[3]", "result": "45* %"}, {"measurement": "% decrease TG", "setting": "[3]", "result": 51, "unit": "%"}, {"measurement": "% Edema inhibition", "setting": "[1]", "result": 31, "unit": "%"}]}, {"smiles": "CCOC(=O)C(CS)NC(=O)C1CCCN1C(=O)C(C)c1ccc2cc(OC)ccc2c1", "note": "(stereo not drawn) [Compound 5]", "values": [{"measurement": "% Inhibition of experimental arthritis", "setting": "[5]", "result": 100, "unit": "%"}, {"measurement": "% Interaction with the stable free radical DPPH", "setting": "[2]; compound 0.2mM", "result": 85, "unit": "%"}, {"measurement": "% Interaction with the stable free radical DPPH", "setting": "[2]; compound 0.1mm", "result": 65, "unit": "%"}, {"measurement": "% decrease LDL", "setting": "[3]", "result": "55* %"}, {"measurement": "% decrease TC", "setting": "[3]", "result": "58** %"}, {"measurement": "% decrease TG", "setting": "[3]", "result": "68.7** %"}, {"measurement": "Perforating ulcers (%)", "setting": "female Fischer-344 rats", "result": 0, "unit": "%"}, {"measurement": "Mortality (%)", "setting": "female Fischer-344 rats", "result": 0, "unit": "%"}, {"measurement": "Body weight change", "setting": "female Fischer-344 rats", "result": "+1.5 g/100 body weight"}, {"measurement": "IC50", "setting": "[4]", "result": 320, "unit": "µM"}, {"measurement": "% Edema inhibition", "setting": "[1]", "result": 30, "unit": "%"}]}]}
